Assay results published in patent publication US12226396B2, “Gluconic acid derivatives for use in the treatment and/or prevention of microbial infections” (GEDEA BIOTECH AB, priority 2017, dated 2025).

How the values were obtained:
[1] = test system: Candida albicans; experiment: Biofilm formation in a model of in vivo conditions (pellet release in pH 3.71 buffer); assay type: cell-based
Experimental: (§1) Biofilm was measured in liquid culture as described [K. Scherz et al., G3 (Bethesda), 2014, 4, 1671-1680. I. Serrano-Fujarte et al. Biomed Res Int. 2015; 2015:783639] with some modifications. Prior the biofilm assay, yeast cultures were grown in liquid YPD medium for 24 hours until stationary phase (OD600 11-17)^2, cells were then pelleted by centrifugation (1699 g), washed with sterile water and cells were further inoculated into test biofilm medium (YNB (yeast nitrogen base without amino acids and ammonium sulphate) supplemented with 0.5% ammonium sulphate, 0.2% glucose and 100 mM L-proline pH7.0) at final concentration 0.2 OD600/ml and incubated in 96-well flat-bottom polystyrene microtiter plates (Sigma Aldrich, Corning® Costar® culture plates, CLS3596-50EA) for 72 hours at 37° C. thermostat. At defined time points crystal violet (HT901-8FOZ; Sigma Aldrich) was added to the media at the final concentration 0.05%, in addition total biomass was measured. After 24 hours of cells staining, plate wells were washed four times with 200 μl of water to remove planktonic cells, biofilms were then dried and dissolved in 200 μl of 96% ethanol. Total biomass and crystal violet biofilm staining measurements were performed at OD560 with FLUOstar OPTIMA plate reader, BMG LABTECH. Crystal violet biofilm measurements were normalized to the total biomass (OD560Biofilm/OD560 total biomass).
(§2) Pellet of lactonized/oligomerized gluconic acid (1.3 g, duplicate samples) were added to buffer solution of pH 3.71 (0.5 M KH2PO/ortho phosphoric acid, 10 mL) at 37° C. Samples (4 mL) were taken every hour (1, 2, 3, 4, 5, 6 and 24 h) and new buffer solution (4 mL) was added. The samples were diluted 50 times with biofilm medium (vide supra) and the amount of biofilm formation was measured after 24 h as described above. […]
(§3) Samples (4 mL) were taken at fixed time points (1, 2, 3, 4, 5, 6 and 24 h) and new buffer solution (4 mL) was added. The samples were diluted 50 times with biofilm medium (vide supra) and the amount of biofilm formation was measured after 24 h as described above. […]

[2] = test system: Candida glabrata; experiment: as above; assay type: cell-based; settings: pellet 2.5 g in pH 3.71 buffer at 37° C, sample after 1 h, diluted 50 times, biofilm after 24 h
Experimental: as §1, §2, §3

[3] = test system: C. glabrata; experiment: Viability of mature biofilm, XTT assay; assay type: cell-based, Candida glabrata; settings: 24 h of incubation with GDA
Experimental: XXT is a colorimetric assay for quantification of cellular viability, and cytotoxicity. The assay is based on the cleavage of the tetrazolium salt XTT, a conversion that only occurs in viable cells. […] Then the cells were washed 2 times with PBS, after which the XTT reaction mixture was added. After 30 min the optical density measured at 485 nm.

[4] = test system: C. glabrata; experiment: Mature biofilm cell survival, serial dilution plating on YPD; assay type: cell-based, Candida glabrata; settings: 0.2 and 0.5 g/ml, 5 h of incubation, 37° C
Experimental: The plated cells were incubated for 24 h at 37° C. and visually analyzed. The cells from the mature biofilm treated with water were used as a control. […] At the concentrations of 0.2 and 0.5 g/ml after 5 h of incubation the cell viability was decreased by about 100 times for both C. albicans and C. glabrata.

[5] = test system: C. albicans; experiment: Microfluidics study of biofilm development (cell morphology); assay type: cell-based, Candida albicans; settings: 1 h hydrolysate of 2.5 g pellet diluted 50 times, after 5 h
Experimental: To monitor the C. albicans cell morphology we studied the biofilm development also using microscopy and microfluidics. After the yeast cells were inoculated, hyphae started to form within first hour of incubation in the biofilm medium (YNB supplemented with 100 mM proline and 0.2% glucose, pH7.0). […] A sample was taken after 1 h and diluted 50 times with biofilm medium and added to C. albicans.

[6] = test system: Escherichia coli K12; experiment: E. coli biofilm study in M9 medium (crystal violet); assay type: cell-based
Experimental: The bacterial strain Escherichia coli K12 was used for the biofilm study. This strain was maintained on LB medium at 37° C. The biofilm was studied in synthetic medium M9 (×1 M9 minimal salts (Sigma M6030), 2 mM MgSO4, 0.1 mM CaCl2, and 0.2% glucose), which contained either phosphate buffer, citric acid, lactic acid, gluconic acid or glucono-O-lactone to obtain media with different pH (2.6-6.6).
The overnight culture of E. coli K12 (OD600˜5.0) was washed with sterile water and inoculated to the final concentration 0.2 OD/ml of M9 medium with different pH of different compounds. The biofilm development was studied in 96-well flat-bottom polystyrene microtiter plates (Sigma Aldrich, Corning® Costar® culture plates, CLS3596-50EA). The biofilm was stained with crystal violet.

[7] = test system: Gardnerella vaginalis CCUG 3717; experiment: MIC microdilution test; assay type: cell-based; settings: CAMHB, 48 hours, 5% CO2
Experimental: (§4) Gardnerella vaginalis, Lactobacillus iners, and Lactobacillus crispatus were recovered by CCUG (Culture Collection of University of Gothenburg). Subculture plates were made for G. vaginalis on Chocolate-GL plates and Lactobacillus spp. on M.R.S. agar plates at 5% CO2, 36° C. The inoculums were prepared from the subculture plates. Colonies were inoculated to culture tubes with 5 ml test medium and vortexed 2 min with about 10 glass beads a 3 mm in diameter. Colonies were taken until the turbidity of the solution was OD475 of 0.4-0.5. The bacterial solutions were checked in light microscopy at ×40 with phase contrast to make sure that the cells were dispersed. Each bacterial suspension was diluted in its test medium, 1:100, to equal 1-3×10^6 CFU/ml. The microbial solutions were stored at 20° C. during the preparation of the inoculums
(§5) The test substance solution was prepared aseptically at 1 g/ml in sterile H2O. The first row of wells was filled with 100 μl substance and then 2 fold dilutions were done vertically in 8 steps.
(§6) Next, 100 μl microorganisms were added and the plates were gently shaken at 500 rpm for 30 seconds before incubation at 35° C. and 90% RH in the CO2 incubator set at 5% CO2. After 48 and 72 hours of incubation, the OD was measured and ocular assessments were done. The pH was also measured for all dilutions, n=1, pH=6.8-7.1

[8] = test system: Lactobacillus crispatus CCUG 44128; experiment: MIC microdilution test; assay type: cell-based; settings: IsoS-M.R.S., 48 hours, 5% CO2
Experimental: as §4, §5, §6

[9] = test system: Lactobacillus iners CCUG 44025; experiment: MIC microdilution test; assay type: cell-based; settings: CAMHB, anaerobic conditions, 120 hours
Experimental: as §4, §5
The pH was also measured for all dilutions, n=1, pH=6.8-7.1

MIC (g/ml) [7]: 0.001 g/ml | MIC (g/ml) [8]: 0.0078 g/ml | MIC (g/ml) [9]: 0.0078 g/ml
Compound: O=C1O[C@H](CO)[C@@H](O)[C@H](O)[C@H]1O [GDA, glucono-δ-lactone]
Normalized biofilm (% of control), 1 h ([1]; pellet 2.5 g in pH 3.71 buffer at 37° C, sample after 1 h, diluted 50 times, biofilm after 24 h): 8.3 % of control | duration of preventive effect on biofilm formation from pellet hydrolysis ([1]; pellet in pH 3.71 buffer, samples 1-24 h diluted 50 times): ≥ 24 h | Normalized biofilm (% of control), 1 h [2]: 71 % of control | decrease in viability of mature biofilm (XTT) [3]: strong decrease in viability | decrease of cell viability [4]: about 100 times | cell morphology [5]: most treated cells were planctonic | effect on growth (biomass) ([6]; M9 medium, 24-48 hours): inhibiting effect on the growth | decrease of biofilm formation ([6]; pH 2.6, 24 h): 14.2 times | decrease of biofilm formation ([6]; pH 2.6, 48 h): 30 times
